Assay [1] has as its target human CB2 receptor (hCB2) (Homo sapiens, UniProt P34972). Nature of the assay: cAMP assay (LANCE TR-FRET) in CHO-K1 cells expressing hCB2. In kind it is cell-based. Conditions: for Emax: CHO-K1, read-out: hCB2 % Max Range; for EC50: CHO-K1 cells stably expressing hCB2, intracellular cAMP, NKH-477 prestimulated, average of at least three replicates. As to the method: (§1) The ability of compounds to act as agonists or inverse agonists at human CB2 and CB1 receptors (hCB2, hCB1, respectively) was determined by measuring changes in intracellular cAMP levels. Chinese Hamster Ovary (CHO-K1) cell lines stably expressing hCB2 (Genebank: X74328) or hCB1 (Genebank: X54937) were purchased from Euroscreen (Gosselies, Belgium).
(§2) Cell lines were grown in suspension in EX-CELL 302 CHO Serum-free medium (Sigma, catalog #14324C) supplemented with 1% Fetal Bovine Serum, glutamine and with or without non-essential amino-acids under 0.4 mg/mL G418 selection.
(§3) Receptor mediated responses were determined by measuring changes in intracellular cAMP using LANCE cAMP detection kit (catalog #AD0264, PerkinElmer, Wellesley, Mass.) based on time-resolved fluorescence resonance energy transfer (TR-FRET). Changes in cAMP were determined in cells pre-incubated with IBMX (isobutyl methylxanthine) and prestimulated with NKH-477 (a water soluble forskolin derivative, catalog #1603, Tocris, Ellisville, Mo.) to increase basal cAMP levels as detailed below.
(§4) On the day of the experiment, cells were spun at low speed for 5 min at room temperature. The supernatant was removed and cells were resuspended in stimulation buffer (Hanks Buffered Salt Solution/5 mM HEPES, containing 0.5 mM IBMX (catalog #17018, Sigma) and 0.02% BSA (PerkinElmer, catalog #CR84-100)). Cell clumps were removed by filtering through cell strainer 40 μm (BD Falcon, Discovery Labware, Bedford, Mass.) and diluted to 2×10^5 cells/mL. Antibody supplied with the LANCE cAMP immunoassay kit was then added according to the manufacturer's instructions. An aliquot of cells was taken for un-induced controls. To the remaining cells was added NKH-477 (a water soluble forskolin derivative, Tocris catalog #1603) to a final concentration of 2-8 μM. Cells were then incubated for either 25 or 30 min at room temperature prior to adding to Proxiplates containing test compounds (final DMSO concentration was less than 0.5%) with a Multidrop bulk dispenser, followed by a sixty minute incubation at room temperature. The response was stopped by addition of the detection mix supplied with the LANCE kit.
(§5) The reagents were allowed to equilibrate for three hours prior to reading on an Envision multi-mode detector (PerkinElmer). TR-FRET was measured using a 330-380 nm excitation filter, 615 and 665 nm emission filters, dichroic mirror 380 nm and Z=1 mm.
(§6) Cyclic AMP concentrations in each well were back-calculated from a cAMP standard curve run concurrently during each assay. Each plate contained 16 wells of forskolin stimulated cells and 16 wells of forskolin plus CP55,940-treated. CP55,940-treated cells were treated with CP55,940 (Tocris catalog #0949) at 1 μM and the maximal response was used as the full range (100%) standard. WIN55,212 (Tocris catalog #1038) was used as an internal standard. Concentrations of cAMP were expressed as a percent of the difference of these two groups of wells. Concentration-response data including EC50 (the concentration of compound producing 50% of the maximal response) and intrinsic activity (the percent maximal activation compared to full activation by CP55,940) were determined using a four-parameter non-linear regression algorithm (Xlfit equation 251, IDBS). Assays were performed with at least three replicates per compound and averaged results for the several compounds of the invention are shown in Table I.

In assay [2] the target is human CB1 receptor (hCB1) (Homo sapiens, UniProt P21554). The assay can be described thus: cAMP assay (LANCE TR-FRET) in CHO-K1 cells expressing hCB1. In kind it is cell-based. Conditions: activity on hCB1 represents inverse agonism; for EC50: CHO-K1 cells stably expressing hCB1, intracellular cAMP, NKH-477 prestimulated; for hCB1 % Max Range: percent of range defined by CP55,940 (1 μM = 100%); for Emax: CHO-K1, percent of range defined by CP55,940 (1 μM = 100%), read-out: hCB1 % Max Range. As for the experimental part:
as §1, §2, §3, §4, §5
as §6, with “IDBS).” for “IDBS). Assays were performed with at least three replicates per compound and averaged results for the several compounds of the invention are shown in Table I.”

Where [3] appears, read: intrinsic activity: percent maximal activation compared to full activation by CP55,940 (1 μM = 100%).

Chain of human CB2 receptor (hCB2) (P34972 whole entry): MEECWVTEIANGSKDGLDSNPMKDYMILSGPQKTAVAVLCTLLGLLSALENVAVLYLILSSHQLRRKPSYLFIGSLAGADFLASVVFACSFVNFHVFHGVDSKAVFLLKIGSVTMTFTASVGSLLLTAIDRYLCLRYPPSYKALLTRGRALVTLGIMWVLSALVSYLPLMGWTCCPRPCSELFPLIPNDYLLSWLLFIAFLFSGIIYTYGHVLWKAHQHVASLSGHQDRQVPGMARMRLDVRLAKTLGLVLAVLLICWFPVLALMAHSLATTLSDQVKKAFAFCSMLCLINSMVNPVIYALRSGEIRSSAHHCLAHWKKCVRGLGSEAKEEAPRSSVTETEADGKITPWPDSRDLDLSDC
Chain of human CB1 receptor (hCB1) (P21554 whole entry): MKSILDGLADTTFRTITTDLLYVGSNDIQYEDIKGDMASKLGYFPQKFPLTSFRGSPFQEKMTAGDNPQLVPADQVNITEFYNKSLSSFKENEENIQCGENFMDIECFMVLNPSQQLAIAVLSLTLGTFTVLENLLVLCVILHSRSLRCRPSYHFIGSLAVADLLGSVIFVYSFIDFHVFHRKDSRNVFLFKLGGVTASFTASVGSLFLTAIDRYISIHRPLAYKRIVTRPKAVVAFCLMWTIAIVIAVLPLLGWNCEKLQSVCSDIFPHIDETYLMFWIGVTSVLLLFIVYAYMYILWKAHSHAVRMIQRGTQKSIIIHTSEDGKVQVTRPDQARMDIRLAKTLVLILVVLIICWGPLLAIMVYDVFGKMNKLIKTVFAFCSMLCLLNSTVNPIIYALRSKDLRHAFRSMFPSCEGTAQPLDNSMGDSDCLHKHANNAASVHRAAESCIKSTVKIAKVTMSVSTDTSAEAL

`CC(=O)Nc1ccc2c(c1)C1C3CCC(C3)C1C(c1ccc(C)cc1)N2` (single isomer, unassigned) [(25a), Bridged N-(6-p-tolyl-5,6,6a,7,8,9,10,10a-octahydrophenanthridin-2-yl)acetamide]: the Emax in assay [1] (setting [3]) was below 40%. In addition, the EC50 in assay [1] is above 10000 nM; in assay [2], 3280 nM. Further, in assay [2], the “hCB1 % Max Range” value came to 78%.
As to `CC(=O)Nc1ccc2c(c1)C1C3CCC(C3)C1C(c1ccc(C)cc1)N2` (single isomer, unassigned) [(25b), Bridged N-(6-p-tolyl-5,6,6a,7,8,9,10,10a-octahydrophenanthridin-2-yl)acetamide], the EC50 in assay [1] was above 10000 nM. Moreover, the “hCB2 % Max Range” value in assay [1] (setting [3]) was “N/A (N/A: Response <40% assay range)”. In assay [2], the EC50 was 3540 nM and the “hCB1 % Max Range” value is recorded as 107%.
On to `CCCNC(=S)Nc1ccc2c(c1)C1C3CCC(C3)C1C(c1ccccc1)N2` (stereo not drawn) [(6), Bridged 1-propyl-3-(phenyl-5,6,6a,7,8,9,10,10a-octahydrophenanthridin-2-yl)thiourea], for which the Emax in assay [1] (setting [3]) stood at 76%; in assay [2], 53%. The values for the EC50 in assay [1] and in assay [2] were 99.8 nM and 1860 nM, respectively.
The matching figures for `CCCNC(=O)Nc1ccc2c(c1)C1C3CCC(C3)C1C(c1ccc(C)cc1)N2` (stereo not drawn) [(7), Bridged 1-propyl-3-(6-p-tolyl-5,6,6a,7,8,9,10,10a-octahydrophenanthridin-2-yl)urea]: below 40%, below 40%, above 10000 nM and above 10000 nM.
The matching figures for `CCCNC(=S)Nc1ccc2c(c1)C1C3CCC(C3)C1C(c1ccc(C)cc1)N2` (stereo not drawn) [(8), Bridged 1-propyl-3-(6-p-tolyl-5,6,6a,7,8,9,10,10a-octahydrophenanthridin-2-yl)thiourea]: below 40%, 63%, above 10000 nM and 2040 nM.
As to `O=S(=O)(c1ccc2c(c1)C1C3CCC(C3)C1C(c1c(Cl)cccc1Cl)N2)N1CCCCC1` (stereo not drawn) [(9), Bridged 6-(2,6-dichlorophenyl)-2-(piperidin-1-ylsulfonyl)-5,6,6a,7,8,9,10,10a-octahydrophenanthridine], the Emax is 75% in assay [1] (setting [3]) and below 40% in assay [2]. Also, the EC50 in assay [1] is 79.4 nM; in assay [2], above 10000 nM.
Taken in the same sequence, the figures for `Cc1ccc(C2Nc3ccc(S(=O)(=O)N4CCCCC4)cc3C3C4CCC(C4)C23)cc1` (stereo not drawn) [(10), Bridged 2-(piperidin-1-ylsulfonyl)-6-p-tolyl-5,6,6a,7,8,9,10,10a-octahydrophenanthridine] were 98%, below 40%, 21 nM and above 10000 nM.
Regarding `CN(C)S(=O)(=O)c1ccc2c(c1)C1C3CCC(C3)C1C(c1ccccc1)N2` (stereo not drawn) [(11), Bridged N,N-dimethyl-6-phenyl-5,6,6a,7,8,9,10,10a-octahydrophenanthridine-2-sulfonamide], the Emax in assay [1] (setting [3]) is 99%; in assay [2] it was below 40%. The EC50 in assay [1] was 0.98 nM; in assay [2], above 10000 nM.
Taken in the same sequence, the figures for `COCCC(=O)Nc1ccc2c(c1)C1C3CCC(C3)C1C(c1ccccc1)N2` (stereo not drawn) [(12), Bridged 3-methoxy-N-(6-phenyl-5,6,6a,7,8,9,10,10a-octahydrophenanthridin-2-yl)propanamide] were 82%, below 40%, 12.4 nM and above 10000 nM.
Turning to `O=C(Nc1ccc2c(c1)C1C3CCC(C3)C1C(c1ccccc1)N2)c1cocn1` (stereo not drawn) [(13), Bridged N-(6-phenyl-5,6,6a,7,8,9,10,10a-octahydrophenanthridin-2-yl)oxazole-4-carboxamide], the Emax in assay [1] (setting [3]) is 57%; in assay [2], below 40%. For the same compound, the EC50 in assay [1] is 680 nM; in assay [2], above 10000 nM.
Taken in the same sequence, the figures for `O=C(CC1CCCO1)Nc1ccc2c(c1)C1C3CCC(C3)C1C(c1ccccc1)N2` (stereo not drawn) [(14), Bridged N-(6-phenyl-5,6,6a,7,8,9,10,10a-octahydrophenanthridin-2-yl)-2-(tetrahydrofuran-2-yl) acetamide] were 92%, below 40%, 9.1 nM and above 10000 nM.
Taken in the same sequence, the figures for `COCCC(=O)Nc1ccc2c(c1)C1C3CCC(C3)C1C(c1ccc(C)cc1)N2` (stereo not drawn) [(15), Bridged 3-methoxy-N-(6-p-tolyl-5,6,6a,7,8,9,10,10a-octahydrophenanthridin-2-yl)propanamide] were below 40%, 56%, above 10000 nM and 2360 nM.
On to `Cc1ccc(C2Nc3ccc(NC(=O)CC4CCCO4)cc3C3C4CCC(C4)C23)cc1` (stereo not drawn) [(16), Bridged 2-(tetrahydrofuran-2-yl)-N-(6-p-tolyl-5,6,6a,7,8,9,10,10a-octahydrophenanthridin-2-yl)acetamide], for which the Emax in assay [1] (setting [3]) is 52%; in assay [2] it was below 40%. For the same compound, the figures for the EC50 in assay [1] and in assay [2] were 102 nM and above 10000 nM, respectively.
Taken in the same sequence, the figures for `c1ccc(C2Nc3ccc(N4CCOCC4)cc3C3C4CCC(C4)C23)cc1` (stereo not drawn) [(17), Bridged 4-(6-phenyl-5,6,6a,7,8,9,10,10a-octahydrophenanthridin-2-yl)morpholine] were 94%, below 40%, 140 nM and above 10000 nM.
Taken in the same sequence, the figures for `Cc1ccc(C2Nc3ccc(N4CCOCC4)cc3C3C4CCC(C4)C23)cc1` (stereo not drawn) [(18), Bridged 4-(6-p-tolyl-5,6,6a,7,8,9,10,10a-octahydrophenanthridin-2-yl)morpholine] were below 40%, below 40%, above 10000 nM and above 10000 nM.
As for `O=C(Nc1ccc2c(c1)C1C3CCC(C3)C1C(c1ccccc1)N2)C1CC1` (stereo not drawn) [(19), Bridged N-(6-phenyl-5,6,6a,7,8,9,10,10a-octahydrophenanthridin-2-yl)cyclopropanecarboxamide], the Emax worked out at 49% in assay [1] (setting [3]) and 53% in assay [2]. Also, the EC50 in assay [1] stood at 187 nM; in assay [2] it was 1700 nM.
The matching figures for `O=C(Nc1ccc2c(c1)C1C3CCC(C3)C1C(c1c(Cl)cccc1Cl)N2)C1CC1` (stereo not drawn) [(20), Bridged N-(6-(2,6-dichlorophenyl)-5,6,6a,7,8,9,10,10a-octahydrophenanthridin-2-yl)cyclopropanecarboxamide]: below 40%, below 40%, above 10000 nM and above 10000 nM.
For the compound `CCC1Nc2ccc(NC(=O)C3CC3)cc2C2C3CCC(C3)C12` (stereo not drawn) [(21), Bridged N-(6-ethyl-5,6,6a,7,8,9,10,10a-octahydrophenanthridin-2-yl)cyclopropanecarboxamide], the Emax in assay [1] (setting [3]) was 84%; in assay [2], below 40%. The EC50 was 1200 nM in assay [1] and above 10000 nM in assay [2].

(Values after patent publication US20080214537A1, “BRIDGED PHENANTHRIDINES” (CARA THERAPEUTICS, INC., priority 2007, published 2008).)
